# Data from article PMC8476755 (Frontiers in Chemistry, 2021).
# Where two headings read alike, the source gives them in different places.
# Target: T1, GAT3 L314Q (Homo sapiens, UniProt P48066, L314Q)
# T1 construct: expressed in transfected cells; host or cells: tsA201 (transformed HEK293), transient
# T1 sequence (P48066 1-632 L314Q): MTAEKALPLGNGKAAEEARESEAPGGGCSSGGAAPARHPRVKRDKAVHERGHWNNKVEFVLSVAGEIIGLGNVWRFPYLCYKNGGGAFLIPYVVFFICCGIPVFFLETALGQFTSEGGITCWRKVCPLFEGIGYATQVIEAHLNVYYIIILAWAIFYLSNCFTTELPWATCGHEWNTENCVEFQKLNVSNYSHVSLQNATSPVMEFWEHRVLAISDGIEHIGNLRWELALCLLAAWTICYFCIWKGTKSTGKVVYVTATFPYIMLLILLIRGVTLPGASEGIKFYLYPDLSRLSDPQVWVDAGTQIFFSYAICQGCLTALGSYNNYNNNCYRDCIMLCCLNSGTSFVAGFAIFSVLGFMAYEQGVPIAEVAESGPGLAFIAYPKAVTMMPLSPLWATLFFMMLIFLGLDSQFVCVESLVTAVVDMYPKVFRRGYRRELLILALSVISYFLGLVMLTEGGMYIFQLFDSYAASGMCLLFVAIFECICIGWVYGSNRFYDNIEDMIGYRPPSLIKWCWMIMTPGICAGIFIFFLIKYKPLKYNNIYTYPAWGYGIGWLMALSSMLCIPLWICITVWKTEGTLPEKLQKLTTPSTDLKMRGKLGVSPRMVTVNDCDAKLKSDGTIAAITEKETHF
# Experiment: [3H]GABA uptake assay, transient expression in tsA201 cells
# Assay type: cell-based
# Settings: for Increase in inhibitory activity relative to wt: GAT3 L314Q vs GAT3 wt; for IC50: GAT3 L314Q, tsA201 cells
# Text: According to the docking and MD results, the sidechains of Q299 and E52 were identified to form crucial interactions with the protonated nitrogen of both compounds. The residue Q299 in human BGT1 corresponds to leucine in all other GATs (human, rat, mouse), while E52 corresponds to tyrosine in GAT1 (human, rat, mouse) but is conserved among GAT2, GAT3 and BGT1 (human, rat, mouse) (Figure 6A) ([Kickinger et al., 2019]). Thus, we engineered the corresponding mutants Q299L and E52Y in human BGT1 and predicted that the introduction of these mutations would lead to decreased activity of both bicyclo-GABA and 2 due to the loss of essential hydrogen bond interactions. Furthermore, we wanted to test the double mutant E52Y + Q299L. However, in a previous study this mutant was proven non-functional ([Kickinger et al., 2020]). Instead, we generated the double mutant E52A + Q299L as well as the single mutant E52A. For these mutants we predicted decreased activity. Lastly, the reciprocal mutation to BGT1 Q299L was created in GAT3 (L314Q), ideally expecting a gain-of-function.
# FIGURE 6 (A) Pocket alignment of the orthosteric site of the four GAT subtypes colored according to the default ClustalX color scheme ([Larkin et al., 2007]). The pocket was defined as all corresponding GAT residues (15 in total) that are within a distance of 4.5 Å of the co-crystallized ligand leucine in the homologous LeuT crystal structure (PDB ID 2A65) ([Yamashita et al., 2005]) according to the alignment by Kickinger et al. ([Kickinger et al., 2019]). The mutated residues in BGT1 and the corresponding residues in GAT1-3 are indicated by a red box. The numbering of all residues within the orthosteric pocket can be found in the Supplementary Table S1.
# The tsA201 cell line (a transformed HEK293 cell line), the Flp-In CHO cell lines stably expressing human (h) GATs and the HEK293 cell line stably expressing human α1β2γ2 GABAA receptors have been described previously and were cultured accordingly ([Al-Khawaja et al., 2014]; [Falk-Petersen et al., 2020]). The tsA201 cell line used for transient expression of hGATs was transfected with DNA constructs (8 μg per 10 cm plate) using 40 μL PolyFect transfection reagent according to the manufacturer’s protocol (Qiagen). All DNA constructs used have been described previously: wt hBGT1, wt GAT3 ([Kvist et al., 2009]), BGT1 Q299, GAT3 L314Q ([Jørgensen et al., 2017]), hBGT E52Y, BGT1 E52A and BGT1 E52A + Q299L ([Kickinger et al., 2020]).
# Briefly, cells were seeded in white 96-well plates (White Opaque Tissue Culture (TC) plated 96-well Microplate) pre-coated with PDL. Medium was removed on the following day and cells washed with 100 µL/well assay buffer (HBSS supplemented with 20 mM HEPES, 1 mM CaCl2 and 1 mM MgCl2, pH 7.4). […] The cells were washed 3 times with 100 µL/well ice-cold assay buffer, 150 µL/well MicroScint™20 was subsequently added before the plate was shaken for at least 1 h. The plate was counted in a Packard TopCounter microplate scintillation counter (PerkinElmer) for 3 min per well. Typical counts per minute for the different GATs were in the range of: wt hBGT1 (100–4,000), BGT1 Q299 (100–1,000), hBGT E52Y (150–500), BGT1 E52A (150–8,000), BGT1 E52A + Q299L (150–500), wt GAT3 (200–8,000), GAT3 L314Q (100–1,500), wt GAT1 (100–10,000) and wt GAT2 (150–7,500). […] Data presented is the pooled data of at least three independent experiments with three technical replicates if not stated otherwise in figure legends. Concentration–response curves were fitted by non-linear regression to the sigmoidal concentration-response model with GraphPad Prism (version 9.0.0, GraphPad Software, San Diego, CA, United States) as described ([Lie et al., 2020]).
Increase in inhibitory activity relative to wt,IC50 (read-out: IC50),IC50 (read-out: pIC50 ± S.E.M. (converted)),SMILES
38 times,16 µM,12.6 µM,"N[C@@]12CC[C@H](C(=O)O)[C@@H]1C2 [bicyclo-GABA, (1S,2S,5R)-5-aminobicyclo[3.1.0]hexane-2-carboxylic acid]"
not increased,291 µM,–,CN[C@@]12CC[C@H](C(=O)O)[C@@H]1C2 [compound 2]
